According to ChEMBL document CHEMBL1201862, “PubChem BioAssay data set” (2004):
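Values below derive from 48-hour exposures of cells grown in 96-well plates, with endpoints linearly interpolated between the two concentrations bracketing the appropriate inhibition level. GI50: concentration for 50% inhibition of growth.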 Activity calls are given as the source filed them. No stated cut-off is given here; in the data, active = GI50 up to about 1.1 µM and inactive = higher.

Tests used:
Test in all cases: growth of human tumour cells (NCI), 48 h
A549 = tested on: A549
CCRF-CEM = tested on: CCRF-CEM
EKVX = tested on: EKVX
HCT-15 = tested on: HCT-15
HT-29 = tested on: HT-29
IGROV-1 = tested on: IGROV-1
LOX IMVI = tested on: LOX IMVI
M14 = tested on: M14
MDA-MB-231 = tested on: MDA-MB-231
Malme-3M = tested on: Malme-3M
OVCAR-5 = tested on: OVCAR-5
RXF 393 = tested on: RXF 393
SF-295 = tested on: SF-295
SK-MEL-2 = tested on: SK-MEL-2
SN12C = tested on: SN12C
SNB-19 = tested on: SNB-19
SR = tested on: SR
T47D = tested on: T47D
UACC-257 = tested on: UACC-257
UO-31 = tested on: UO-31

| Compound | GI50 (A549) | GI50 (CCRF-CEM) | GI50 (EKVX) | GI50 (HCT-15) [µM] | GI50 (HT-29) | GI50 (IGROV-1) | GI50 (LOX IMVI) | GI50 (M14) | GI50 (MDA-MB-231) | GI50 (Malme-3M) | GI50 (OVCAR-5) | GI50 (RXF 393) | GI50 (SF-295) | GI50 (SK-MEL-2) | GI50 (SN12C) | GI50 (SNB-19) | GI50 (SR) | GI50 (T47D) | GI50 (UACC-257) | GI50 (UO-31) |
| --- | --- | --- | --- | --- | --- | --- | --- | --- | --- | --- | --- | --- | --- | --- | --- | --- | --- | --- | --- | --- |
| Oc1ccc2ccccc2c1CN(Cc1c(O)ccc2ccccc12)C1CCCCC1 | 19.4 µM (inactive) | 27.3 µM (inactive) | 15.4 µM (inactive) | 20.6 | 21.6 µM (inactive) | 11.8 µM (inactive) | 15 µM (inactive) | 15.2 µM (inactive) | 18.5 µM (inactive) | 15.8 µM (inactive) | 41.9 µM (inactive) | 18.2 µM (inactive) | 37 µM (inactive) | 23.3 µM (inactive) | 14.4 µM (inactive) | 28.2 µM (inactive) | 21.3 µM (inactive) | 31.9 µM (inactive) | 15.3 µM (inactive) | 17.1 µM (inactive) |
| CCCCc1c2c(nc3c1CCC/C3=C\c1ccccc1)C(=O)C(CN(C)C)CC2 (stereo not given) | 19.9 µM (inactive) | 3.17 µM (inactive) | 18.5 µM (inactive) | 8.97 | 12.4 µM (inactive) | 18.3 µM (inactive) | 16.2 µM (inactive) | 17.4 µM (inactive) | 11.1 µM (inactive) | 22.1 µM (inactive) | 18.2 µM (inactive) | 16.3 µM (inactive) | 16.7 µM (inactive) | 20.2 µM (inactive) | 20.1 µM (inactive) | 18.3 µM (inactive) | 2.76 µM (inactive) | 3.61 µM (inactive) | 17 µM (inactive) | 18.9 µM (inactive) |
| CC(C)[Si]1(C(C)C)OCC2OC(n3ccc(=O)[nH]c3=O)C([Se]c3ccccc3)C2O[Si](C(C)C)(C(C)C)O1 (stereo not given) | 9.46 µM (inactive) | 8.91 µM (inactive) | 4.93 µM (inactive) | 4.39 | 1.66 µM (inactive) | 2.44 µM (inactive) | 0.769 µM (active) | 8.24 µM (inactive) | 2.83 µM (inactive) | 2.81 µM (inactive) | 9.48 µM (inactive) | 4.55 µM (inactive) | 5.9 µM (inactive) | 6.79 µM (inactive) | 2.29 µM (inactive) | 0.261 µM (active) | 3.72 µM (inactive) | 6.71 µM (inactive) | 4.31 µM (inactive) | 8.77 µM (inactive) |
| O=C(NCCCCCCCCNC(=O)Nc1cccc2ccccc12)Nc1cccc2ccccc12 | 35.1 µM (inactive) | 12.9 µM (inactive) | 62.1 µM (inactive) | > 100 | > 100 µM (inactive) | 50.6 µM (inactive) | 8.34 µM (inactive) | > 100 µM (inactive) | 7.69 µM (inactive) | > 100 µM (inactive) | 41.7 µM (inactive) | 22.6 µM (inactive) | 28.5 µM (inactive) | 83.9 µM (inactive) | 18.4 µM (inactive) | 32.2 µM (inactive) | > 10 µM (inactive) | 24 µM (inactive) | > 100 µM (inactive) | 21.4 µM (inactive) |
| CS(=O)(=O)Nc1ccc2c(c1)oc(=O)c1ccccc12 | > 100 µM (inactive) | > 100 µM (inactive) | 45.4 µM (inactive) | > 100 | > 100 µM (inactive) | > 100 µM (inactive) | > 100 µM (inactive) | > 100 µM (inactive) | > 100 µM (inactive) | > 100 µM (inactive) | > 100 µM (inactive) | > 100 µM (inactive) | > 100 µM (inactive) | > 100 µM (inactive) | > 100 µM (inactive) | > 100 µM (inactive) | > 100 µM (inactive) | > 100 µM (inactive) | > 100 µM (inactive) | 38.5 µM (inactive) |
| CCOC(=O)/C=C(\C(=O)OCC)n1cnc2c(N)ncnc21 | 17.1 µM (inactive) | 1.63 µM (inactive) | 8.2 µM (inactive) | 3.08 | 6.68 µM (inactive) | 10.8 µM (inactive) | 3.43 µM (inactive) | 10.4 µM (inactive) | 7.31 µM (inactive) | 4.29 µM (inactive) | 5.83 µM (inactive) | 12.6 µM (inactive) | 16.8 µM (inactive) | 16.8 µM (inactive) | 5.19 µM (inactive) | 16.1 µM (inactive) | 1.91 µM (inactive) | 2.92 µM (inactive) | 14.5 µM (inactive) | 16.5 µM (inactive) |
| C/C(=N\O)c1cccc[n+]1Cc1ccccc1 | > 100 µM (inactive) | > 100 µM (inactive) | > 100 µM (inactive) | > 100 | > 100 µM (inactive) | > 100 µM (inactive) | > 100 µM (inactive) | > 100 µM (inactive) | > 100 µM (inactive) | > 100 µM (inactive) | > 100 µM (inactive) | > 100 µM (inactive) | > 100 µM (inactive) | > 100 µM (inactive) | > 100 µM (inactive) | > 100 µM (inactive) | > 100 µM (inactive) | > 100 µM (inactive) | > 100 µM (inactive) | > 100 µM (inactive) |
| CC1(C)[C@H]2Cc3cc(-c4cc5c(cn4)[C@@H]4C[C@H]([C@@H]5[C@@H]5c6cc(-c7cc8c(cn7)[C@@H]7C[C@H](C8)C7(C)C)ncc6[C@@H]6C[C@H]5C6(C)C)C4(C)C)ncc3[C@@H]1C2 | > 100 µM (inactive) | > 100 µM (inactive) | > 100 µM (inactive) | > 100 | > 100 µM (inactive) | > 100 µM (inactive) | > 100 µM (inactive) | > 100 µM (inactive) | > 100 µM (inactive) | > 100 µM (inactive) | > 100 µM (inactive) | > 100 µM (inactive) | > 100 µM (inactive) | > 100 µM (inactive) | > 100 µM (inactive) | > 100 µM (inactive) | > 100 µM (inactive) | > 100 µM (inactive) | > 100 µM (inactive) | > 100 µM (inactive) |
| CN1CCN(C2=C(Cl)C(=O)c3c(O)ccc(O)c3C2=O)CC1 | 2.16 µM (inactive) | 0.105 µM (active) | 1.66 µM (inactive) | 0.176 | 0.359 µM (active) | 1.3 µM (inactive) | 0.635 µM (active) | 0.281 µM (active) | 0.516 µM (active) | 0.196 µM (active) | 1.58 µM (inactive) | 0.18 µM (active) | 1.78 µM (inactive) | 1.21 µM (inactive) | 0.826 µM (active) | 4.99 µM (inactive) | 0.094 µM (active) | 0.551 µM (active) | 0.689 µM (active) | 0.646 µM (active) |
| Nc1c(S(=O)(=O)O)cc(S(=O)(=O)O)c2ccc(/N=N/c3ccccc3)c(O)c12 | > 100 µM (inactive) | > 100 µM (inactive) | > 100 µM (inactive) | > 100 | > 100 µM (inactive) | > 100 µM (inactive) | > 100 µM (inactive) | > 100 µM (inactive) | > 100 µM (inactive) | > 100 µM (inactive) | > 100 µM (inactive) | > 100 µM (inactive) | > 100 µM (inactive) | > 100 µM (inactive) | > 100 µM (inactive) | > 100 µM (inactive) | > 100 µM (inactive) | > 100 µM (inactive) | > 100 µM (inactive) | > 100 µM (inactive) |
| CC1C(=O)C23OC[C@@]1(C)C1(O)CC[C@@H](C)[C@]21CC3=O (stereo not given in full) | > 100 µM (inactive) | > 100 µM (inactive) | > 100 µM (inactive) | > 100 | > 100 µM (inactive) | > 100 µM (inactive) | > 100 µM (inactive) | > 100 µM (inactive) | > 100 µM (inactive) | > 100 µM (inactive) | > 100 µM (inactive) | > 100 µM (inactive) | > 100 µM (inactive) | > 100 µM (inactive) | > 100 µM (inactive) | > 100 µM (inactive) | > 100 µM (inactive) | > 100 µM (inactive) | > 100 µM (inactive) | > 100 µM (inactive) |
| O=C(NC1CCN(Cc2ccccc2)CC1)c1ccc(I)cc1 | 76.4 µM (inactive) | 76.7 µM (inactive) | > 100 µM (inactive) | 59.6 | 19.8 µM (inactive) | 94 µM (inactive) | > 100 µM (inactive) | 39 µM (inactive) | 19.4 µM (inactive) | 1.98 µM (inactive) | > 100 µM (inactive) | 25.2 µM (inactive) | 29.5 µM (inactive) | 75.9 µM (inactive) | > 100 µM (inactive) | > 100 µM (inactive) | > 100 µM (inactive) | > 100 µM (inactive) | 45.8 µM (inactive) | 22.9 µM (inactive) |
| O=C1C(Cl)=C(Cl)C(=O)N1c1ccc(F)cc1 [FLUOROIMIDE] | 97.9 µM (inactive) | 2.75 µM (inactive) | 21.4 µM (inactive) | 16.2 | 22.5 µM (inactive) | 18.6 µM (inactive) | 16.5 µM (inactive) | 19.5 µM (inactive) | 17.1 µM (inactive) | 17.2 µM (inactive) | 20.9 µM (inactive) | 22.5 µM (inactive) | > 53.2 µM (inactive) | 46.1 µM (inactive) | 19.1 µM (inactive) | > 58.3 µM (inactive) | 6.98 µM (inactive) | 17.8 µM (inactive) | 36.1 µM (inactive) | 22 µM (inactive) |
